Holding throughout (type): in vivo
The test system of assay [1] is von Bezold-Jarisch reflex evoked by 5-HT. As to the kind of experiment: Antagonism of the von Bezold-Jarisch reflex. The conditions noted are these: iv; anaesthetised rat; reduces the 5-HT-evoked heart rate response to 50% of the control response. The method, then:
The compounds were evaluated for antagonism of the von Bezold-Jarisch reflex evoked by 5-HT in the anaesthetised rat according to the following method: • Male rats, 250-350g, were anaesthetised with urethane (1.25g/kg intraperitoneally) and blood pressure and heart rate recorded as described by Fozard J.R. et al., J. Cardiovasc. Pharmacol. 2, 229-245 (1^80). A submaximal dose of 5-HT (usually 6ug/kg) was given repeatedly by the intravenous route and changes in heart rate quantified. Compounds were given intravenously and the concentration required to reduce the 5-HT-evoked response to 50% of the control response (ED50) was then determined.

A short description of assay [2]: Intragastric pressure in the rat. The conditions noted are these: dose of 0.13 mg/kg s.c.; fasted conscious restrained rats; 40 minute period following dosing. The method, then:
Intragastric pressure changes were recorded from fasted conscious and restrained rats using a saline filled catheter inserted into the lumen of the stomach via a permanent gastric fistula. The catheter was connected to a physiological pressure transducer and pressure changes recorded on a hot wire pen recorder. An index of activity was obtained by measuring the average height of pressure waves during 10 minute periods. Values for 4 such periods were obtained during assessment of spontaneous activity prior to dosing and for the 40 minute period following dosing with compound or vehicle. The Student's " t " test was applied to the mean values obtained for activity prior to and post treatment. Groups of 10 animals were used for each treatment.

Assay [3] in a line: Intraluminal pressure in the Heidenhain pouch of the dog. Particulars: dose of O.Olmg/kg i.v.; fasted conscious dog, chronic Heidenhain pouch; for at least 4-5 minutes. The method, then: Pressure changes were recorded via a saline filled catheter inserted, with airtight closure, into the fistula of a chronic Heidenhain pouch of the previously fasted and lightly restrained conscious dog. The catheter was connected to a physiological pressure transducer and pressure changes recorded on a hot wire pen recorder. Compounds were administered when the motility was in a phase of relatively low activity and the dose range determined which induced an increase in the amplitude of rhythmical contractions for a period of at least 4-5 minutes.

Structures are written as SMILES.

In assay [1], `COc1cc(N)c(Cl)cc1C(=O)NC1CC2CCC(C1)N2C` (stereo not drawn) [Compound No. 20, (endo)-4-amino-5-chloro-2-methoxy-N-(8-methyl-8-azabicyclo[3.2.1]octyl) benzamide] displayed an ED50 of 0.8 ± 0.2 µg/kg. Also, the “Intragastric pressure changes (average height of pressure waves)” value in assay [2] is given as “active”.
Consider `COc1cc(N)c(Br)cc1C(=O)NC1CC2CCC(C1)N2C` (stereo not drawn) [Example 1, (endo)-4-Amino-5-bromo-2-methoxy-N-(8-methyl-8-aza-bicyclo[3,2,l]oct-3-yl) benzamide], for which the “increase in the amplitude of rhythmical contractions (intraluminal pressure)” value in assay [3] is “active”.

These data come from patent EP0220011A2, “Use of azabicloalkylbenzamides in the treatment of gastrointestinal motility disorders, migraine, emesis, cluster headaches, trigeminal neuralgia and arrhythmia” (BEECHAM GROUP PLC, priority 1985, dated 1987).
